Laboratory results from patent US7291217B2, “Non-toxic corrosion-protection pigments based on rare earth elements” (University of Dayton, priority 2002, dated 2007).
“And” between values parts separate entries of the source, which are not always exact repeats. Equal entries are not always repeated.

Key:
[1] = Static salt fog accelerated corrosion test (ASTM B-117) of PVB wash primer containing the pigment, rated by ASTM D-1654; details: ASTM D-1654 rating; for B-117 Proc. A: failure at scribe; for B-117 Proc. B: unscribed areas
Procedure: (§1) The corrosion-inhibiting performance of CeIV pigments was evaluated by incorporating them into primer paint formulations. […] The wash primer is composed of a resin, an acid, a corrosion-inhibiting pigment, powdered talc, and carbon lampblack. The acid content of this wash primer provides a rigorous initial test of the stability and performance of the pigments. Other, more benign, polymer-based binder and resin systems might not separate the compounds based on their performance as effectively or as rapidly.
(§2) PVB was used exclusively throughout testing to avoid preparation and compositional complications during analysis of pigment performance. However, the invention is not limited to the use of PVB.
(§3) A small amount (0.2 g) of powdered talc (magnesium silicate) “filler” was added. Lampblack was not added to these samples. These components were mixed thoroughly by hand and 3.8 grams of phosphoric acid diluent added with further mixing. This rough processing allowed direct comparisons of pigment performance to be made without complications due to powder treatments, modifications, and additives.
(§4) This is not the conventional paint application procedure for aluminum alloys. Under normal service conditions, aluminum alloys are first subjected to a hexavalent chromium-containing conversion coating prior to primer application. However, the conversion coating was omitted so that the performance of the pigment alone could be evaluated and not the synergistic effects of hexavalent chromium (in the conversion coating) or even of barrier films (in the phosphate or anodized coatings).
(§5) This accelerated corrosion test exposes samples to a constant salt-water fog and is a de facto test of solubility for corrosion inhibitors. […] This accelerated corrosion test exposes samples to a cycle of fog of dilute salt and ammonium sulfate at room temperature followed by forced-air drying at an elevated temperature.
(§6) After the paint dried for 24 hours, each plate was scribed with an X and the plate edges were sealed with PVC tape to eliminate corrosion edge effects.
(§7) Two visual observations are associated with this rating test. Procedure A involves a rating of the failure at the scribe—the representative creepage of corrosion away from the scribe. […] In this way, not only the bulk corrosion-inhibiting action of a pigment through the binder can be rated, but also its “throwing power”.

[2] = Cyclic Prohesion accelerated corrosion test (ASTM G-85.5) of PVB wash primer containing the pigment, rated by ASTM D-1654; details: ASTM D-1654 rating; for G-85 Proc. A: failure at scribe; for G-85 Proc. B: unscribed areas
Procedure: as §1, §2, §3, §4, §5, §6, §7

[3] = pH change on placing the compound into deionized water of pH 7; assay type: physicochemical; details: simple laboratory experiment
Text: A simple laboratory experiment confirms this effect. […] However, if icosahedral Ce(NO3)6^2− (note that this ion contains no hydroxide) is placed into deionized water of pH 7, a quite remarkable pH drop to −1 can be observed. The released tetravalent cerium ions will scavenge virtually all of the available OH^− ions in solution (possibly even degrading H2O itself to obtain OH^−), resulting in this dramatic pH drop.

[4] = reduction to the trivalent ion, cited from earlier work; for calculated redox potential: in acidic solution, Nugent et al. 1971; for oxidation-reduction potential: in acid solution (pH 0)
[5] = in water; resulting from the reported solubility product; cited from earlier work
[6] = 2024-T3, 117 h, inhibitor conc. 1.86 × 10^−3 M (25% of Cr), two cells per column
[7] = 7075-T6, 117 h, inhibitor conc. 1.86 × 10^−3 M (25% of Cr), two cells per column
[8] = 2024-T3, 139 h, inhibitor conc. 7.44 × 10^−4 M (10% of Cr), sample and duplicate
[9] = 7075-T6, 139 h, inhibitor conc. 7.44 × 10^−4 M (10% of Cr), sample and duplicate
[10] = 2024-T3, 117 h, inhibitor conc. 7.44 × 10^−4 M (10% of Cr), sample and duplicate
[11] = 7075-T6, 117 h, inhibitor conc. 7.44 × 10^−4 M (10% of Cr), sample and duplicate
[12] = 2024-T3, 144 h, inhibitor conc. 5.2 × 10^−4 M (7% of Cr), sample and duplicate
[13] = 7075-T6, 144 h, inhibitor conc. 5.2 × 10^−4 M (7% of Cr), sample and duplicate
[14] = 2024-T3, 139 h, inhibitor conc. 3.72 × 10^−3 M (50% of Cr), sample and duplicate
[15] = 7075-T6, 139 h, inhibitor conc. 3.72 × 10^−3 M (50% of Cr), sample and duplicate
[16] = 2024-T3, 144 h, inhibitor conc. 3.72 × 10^−3 M (50% of Cr), sample and duplicate
[17] = 7075-T6, 144 h, inhibitor conc. 3.72 × 10^−3 M (50% of Cr), sample and duplicate

CCCC[N+](CCCC)(CCCC)CCCC.CCCC[N+](CCCC)(CCCC)CCCC.O=[N+]([O-])[O-].O=[N+]([O-])[O-].O=[N+]([O-])[O-].O=[N+]([O-])[O-].O=[N+]([O-])[O-].O=[N+]([O-])[O-].[Ce+4] [Nitrate/NBu4^+]
B-117 Proc. A [1, 6]: 7 | B-117 Proc. A [1, 7]: 7 and 6 | B-117 Proc. B [1, 6]: 5 and 6 | B-117 Proc. B [1, 7]: 6 | G-85 Proc. A [2, 6]: 9 | G-85 Proc. A [2, 7]: 9 | G-85 Proc. B [2, 6]: 8 | G-85 Proc. B [2, 7]: 8

CCCCC[N+](CCCCC)(CCCCC)CCCCC.CCCCC[N+](CCCCC)(CCCCC)CCCCC.O=[N+]([O-])[O-].O=[N+]([O-])[O-].O=[N+]([O-])[O-].O=[N+]([O-])[O-].O=[N+]([O-])[O-].O=[N+]([O-])[O-].[Ce+4] [Nitrate/NPe4^+]
B-117 Proc. A [1, 6]: 6 | B-117 Proc. A [1, 7]: 6 | B-117 Proc. B [1, 6]: 5 | B-117 Proc. B [1, 7]: 6 | G-85 Proc. A [2, 6]: 9 | G-85 Proc. A [2, 7]: 9 | G-85 Proc. B [2, 6]: 8 | G-85 Proc. B [2, 7]: 7

O=[N+]([O-])O.O=[N+]([O-])O.O=[N+]([O-])O.O=[N+]([O-])O.O=[N+]([O-])O.O=[N+]([O-])O.[Ce] [Ce(NO3)6^2−]
pH after placing into deionized water of pH 7 [3]: −1

CCC[N+](CCC)(CCC)CCC.CCC[N+](CCC)(CCC)CCC.O=[N+]([O-])[O-].O=[N+]([O-])[O-].O=[N+]([O-])[O-].O=[N+]([O-])[O-].O=[N+]([O-])[O-].O=[N+]([O-])[O-].[Ce+4] [Nitrate/NPr4^+]
B-117 Proc. A [1, 6]: 7 | B-117 Proc. A [1, 7]: 7 | B-117 Proc. B [1, 6]: 7 and 6 | B-117 Proc. B [1, 7]: 6 | G-85 Proc. A [2, 6]: 9 and 10 | G-85 Proc. A [2, 7]: 9 and 8 | G-85 Proc. B [2, 6]: 8 and 9 | G-85 Proc. B [2, 7]: 7

[Tb+4] [Tb^+4]
calculated redox potential [4]: 3.2 V

[Cr+6] [Cr^+6, reference compound]
oxidation-reduction potential [4]: 1.36 V

CCCCCCCC[N+](C)(CCCCCCCC)CCCCCCCC.CCCCCCCC[N+](C)(CCCCCCCC)CCCCCCCC.O=[N+]([O-])[O-].O=[N+]([O-])[O-].O=[N+]([O-])[O-].O=[N+]([O-])[O-].O=[N+]([O-])[O-].O=[N+]([O-])[O-].[Ce+4] [Nitrate/Adogen 464]
B-117 Proc. A [1, 6]: 5 | B-117 Proc. A [1, 7]: 5 | B-117 Proc. B [1, 6]: 5 | B-117 Proc. B [1, 7]: 3 and 5 | G-85 Proc. A [2, 6]: 7 | G-85 Proc. A [2, 7]: 7 | G-85 Proc. B [2, 6]: 6 | G-85 Proc. B [2, 7]: 6

calcium 11-phosphotungstocerate
B-117 Proc. A [1, 8]: 6 and 5 | B-117 Proc. A [1, 9]: 4 | B-117 Proc. B [1, 8]: 4 | B-117 Proc. B [1, 9]: 3 | G-85 Proc. A [2, 8]: 8 and 7 | G-85 Proc. A [2, 9]: 6 | G-85 Proc. B [2, 8]: 8 and 7 | G-85 Proc. B [2, 9]: 5 and 6

[Ce+4] [Ce^+4]
oxidation-reduction potential [4]: 1.72 V

calcium 10-tungstocerate
B-117 Proc. A [1, 10]: 3 | B-117 Proc. A [1, 11]: 2 | G-85 Proc. A [2, 10]: 7 | G-85 Proc. A [2, 11]: 7 | G-85 Proc. B [2, 10]: 6 | G-85 Proc. B [2, 11]: 6

calcium 12-molybdocerate
B-117 Proc. A [1, 12]: 6 and 7 | B-117 Proc. A [1, 13]: 7 | B-117 Proc. B [1, 12]: 4 and 5 | B-117 Proc. B [1, 13]: 6 | G-85 Proc. A [2, 12]: 8 and 7 | G-85 Proc. A [2, 13]: 8 and 7 | G-85 Proc. B [2, 12]: 6 | G-85 Proc. B [2, 13]: 7 and 5

CC[N+](CC)(CC)CC.CC[N+](CC)(CC)CC.O=[N+]([O-])[O-].O=[N+]([O-])[O-].O=[N+]([O-])[O-].O=[N+]([O-])[O-].O=[N+]([O-])[O-].O=[N+]([O-])[O-].[Ce+4] [Nitrate/NEt4^+]
B-117 Proc. A [1, 6]: 6 | B-117 Proc. A [1, 7]: 6 and 5 | B-117 Proc. B [1, 6]: 3 | B-117 Proc. B [1, 7]: 4 | G-85 Proc. A [2, 6]: 9 and 10 | G-85 Proc. A [2, 7]: 10 | G-85 Proc. B [2, 6]: 7 and 8 | G-85 Proc. B [2, 7]: 8

ammonium 18-vanadatocerate
B-117 Proc. A [1, 14]: 7 | B-117 Proc. A [1, 15]: 7 | B-117 Proc. B [1, 14]: 6 | B-117 Proc. B [1, 15]: 6 | G-85 Proc. A [2, 14]: 7 and 8 | G-85 Proc. A [2, 15]: 8 | G-85 Proc. B [2, 14]: 6 and 7 | G-85 Proc. B [2, 15]: 6 and 7

magnesium 10-tungstocerate
B-117 Proc. A [1, 10]: 5 | B-117 Proc. A [1, 11]: 5 and 4 | B-117 Proc. B [1, 10]: 2 | B-117 Proc. B [1, 11]: 2 | G-85 Proc. A [2, 10]: 9 | G-85 Proc. A [2, 11]: 8 | G-85 Proc. B [2, 10]: 8 | G-85 Proc. B [2, 11]: 7

[Pr+4] [Pr^+4]
calculated redox potential [4]: 3.2 V

[Ce+4].[OH-].[OH-].[OH-].[OH-] [ceric hydroxide, reference compound]
pH after placing into deionized water of pH 7 [3]: only a minor pH change | cerium solubility [5]: approximately 5×10^−12 moles/liter Ce^+4

lithium periodatocerate
B-117 Proc. A [1, 16]: 6 and 5 | B-117 Proc. A [1, 17]: 4 | B-117 Proc. B [1, 16]: 6 and 5 | B-117 Proc. B [1, 17]: 2 and 3 | G-85 Proc. A [2, 16]: 7 | G-85 Proc. A [2, 17]: 7 | G-85 Proc. B [2, 16]: 7 | G-85 Proc. B [2, 17]: 7

magnesium 11-phosphotungstocerate
B-117 Proc. A [1, 8]: 6 | B-117 Proc. A [1, 9]: 5 | B-117 Proc. B [1, 8]: 5 | B-117 Proc. B [1, 9]: 5 | G-85 Proc. A [2, 8]: 7 | G-85 Proc. A [2, 9]: 7 | G-85 Proc. B [2, 8]: 6 | G-85 Proc. B [2, 9]: 6

C[N+](C)(C)C.C[N+](C)(C)C.O=[N+]([O-])[O-].O=[N+]([O-])[O-].O=[N+]([O-])[O-].O=[N+]([O-])[O-].O=[N+]([O-])[O-].O=[N+]([O-])[O-].[Ce+4] [Nitrate/NMe4^+]
G-85 Proc. A [2, 6]: 8 and 7 | G-85 Proc. A [2, 7]: 8 and 7 | G-85 Proc. B [2, 6]: 7 and 6 | G-85 Proc. B [2, 7]: 7 and 6
